{"source": "ChEMBL document CHEMBL3044926", "about": "“Controlling powdery mildew on cucurbit rootstock seedlings in the greenhouse with fungicides and biofungicides” (Crop Prot, 2012)", "key": {"Lagenaria siceraria [1]": {"test_system": "Lagenaria siceraria", "test": "Phytotoxicity against Lagenaria siceraria 'Emphasis' rootstock seedlings", "type": "organism-based", "details": "in vivo"}, "[2]": {"test_system": "Cucurbita maxima x Cucurbita moschata", "test": "Phytotoxicity against inter-specific squash hybrid Cucurbita moschata x Cucurbita maxima (Strong tosa) rootstock seedlings assessed as stunting", "type": "organism-based", "details": "in vivo"}, "Lagenaria siceraria [3]": {"test_system": "Lagenaria siceraria", "test": "Phytotoxicity against Lagenaria siceraria 'Emphasis' rootstock seedlings assessed as stunting", "type": "organism-based", "details": "in vivo"}, "[4]": {"test_system": "Cucurbita maxima x Cucurbita moschata", "test": "Phytotoxicity against inter-specific squash hybrid Cucurbita moschata x Cucurbita maxima (Strong tosa) rootstock seedlings", "type": "organism-based", "details": "in vivo"}, "Podosphaera xanthii [5]": {"test_system": "Podosphaera xanthii", "test": "Fungicidal activity against Podosphaera xanthii (powdery mildew) inoculated in squash (Cucurbita pepo) rootstock seedlings continuously after first drug application assessed as incidence of disease symptoms on hypocotyls or upper or lower sides of cotyledons at 40% in 0.37 ml/L applied thrice at 5-days intervals measured 5 days after third application under green house conditions (water Rvb = …", "type": "functional"}, "Podosphaera xanthii [6]": {"test_system": "Podosphaera xanthii", "test": "(§1) Fungicidal activity against Podosphaera xanthii (powdery mildew) inoculated in Lagenaria siceraria Emphasis continuously after first drug application assessed as disease severity at 40% in 0.37 ml/L applied thrice at 5-days intervals measured 5 days after third application under green house conditions (water Rvb = 53.5%)", "type": "functional"}, "Lagenaria siceraria [7]": {"test_system": "Lagenaria siceraria", "test": "Phytotoxicity against Lagenaria siceraria 'Emphasis' rootstock seedlings assessed as stunted growth", "type": "organism-based", "details": "in vivo"}, "Podosphaera xanthii [8]": {"test_system": "Podosphaera xanthii", "test": "Fungicidal activity against Podosphaera xanthii (powdery mildew) inoculated in inter-specific squash hybrid Strong tosa (Cucurbita moschata x Cucurbita maxima) rootstock seedlings for 7 days prior to drug application assessed as incidence of disease symptoms on hypocotyls or upper or lower sides of cotyledons at 40% in 0.37 ml/L applied once measured 7 days post-drug dose under greenhouse …", "type": "functional"}, "[9]": {"test_system": "Cucurbita maxima x Cucurbita moschata", "test": "Phytotoxicity against inter-specific squash hybrid Cucurbita moschata x Cucurbita maxima (Strong tosa) rootstock seedlings assessed as stunted growth", "type": "organism-based", "details": "in vivo"}, "Podosphaera xanthii [10]": {"test_system": "Podosphaera xanthii", "test": "(§2) Fungicidal activity against Podosphaera xanthii (powdery mildew) inoculated in inter-specific squash hybrid Strong tosa (Cucurbita moschata x Cucurbita maxima) rootstock seedlings for 7 days prior to drug application assessed as disease severity on lower surface areas of cotyledonsat 40% in 0.37 ml/L applied once measured 7 days post-drug dose under greenhouse conditions (water Rvb = 5.1%)", "type": "functional"}, "Podosphaera xanthii [11]": {"test_system": "Podosphaera xanthii", "test": "as §2, with “upper” for “lower”, “10.2%)” for “5.1%)”", "type": "functional"}, "Podosphaera xanthii [12]": {"test_system": "Podosphaera xanthii", "test": "as §1, with “squash (Cucurbita pepo) rootstock seedlings” for “Lagenaria siceraria Emphasis”, “3.9%)” for “53.5%)”", "type": "functional"}, "Podosphaera xanthii [13]": {"test_system": "Podosphaera xanthii", "test": "(§3) Fungicidal activity against Podosphaera xanthii (powdery mildew) inoculated in Lagenaria siceraria Emphasis continuously after first drug application assessed as incidence of disease symptoms on hypocotyls or upper or lower sides of cotyledons at 40% in 0.37 ml/L applied thrice at 5-days intervals measured 5 days after third application under green house conditions (water Rvb = 100%)", "type": "functional"}, "Podosphaera xanthii [14]": {"test_system": "Podosphaera xanthii", "test": "as §1, with “severity on upper surface areas of cotyledons” for “severity”, “36.8%)” for “53.5%)”", "type": "functional"}, "Podosphaera xanthii [15]": {"test_system": "Podosphaera xanthii", "test": "as §2, with “at” for “on lower surface areas of cotyledonsat”, “17.5%)” for “5.1%)”", "type": "functional"}, "Podosphaera xanthii [16]": {"test_system": "Podosphaera xanthii", "test": "as §1, with “severity on lower surface areas of cotyledons” for “severity”, “13.9%)” for “53.5%)”", "type": "functional"}, "Podosphaera xanthii [17]": {"test_system": "Podosphaera xanthii", "test": "as §1, with “severity on upper surface areas of cotyledons” for “severity”, “20.6%” for “40%”, “1.36” for “0.37”, “36.8%)” for “53.5%)”", "type": "functional"}, "Podosphaera xanthii [18]": {"test_system": "Podosphaera xanthii", "test": "as §1, with “squash (Cucurbita pepo) rootstock seedlings” for “Lagenaria siceraria Emphasis”, “20.6%” for “40%”, “1.36” for “0.37”, “3.9%)” for “53.5%)”", "type": "functional"}, "Podosphaera xanthii [19]": {"test_system": "Podosphaera xanthii", "test": "Fungicidal activity against Podosphaera xanthii (powdery mildew) inoculated in squash (Cucurbita pepo) rootstock seedlings continuously after first drug application assessed as incidence of disease symptoms on hypocotyls or upper or lower sides of cotyledons at 20.6% in 1.36 ml/L applied thrice at 5-days intervals measured 5 days after third application under green house conditions (water Rvb = …", "type": "functional"}, "Podosphaera xanthii [20]": {"test_system": "Podosphaera xanthii", "test": "as §1, with “severity on lower surface areas of cotyledons” for “severity”, “20.6%” for “40%”, “1.36” for “0.37”, “13.9%)” for “53.5%)”", "type": "functional"}, "Podosphaera xanthii [21]": {"test_system": "Podosphaera xanthii", "test": "as §2, with “20.6%” for “40%”, “1.36” for “0.37”", "type": "functional"}, "Podosphaera xanthii [22]": {"test_system": "Podosphaera xanthii", "test": "as §2, with “at 20.6%” for “on lower surface areas of cotyledonsat 40%”, “1.36” for “0.37”, “17.5%)” for “5.1%)”", "type": "functional"}, "Podosphaera xanthii [23]": {"test_system": "Podosphaera xanthii", "test": "Fungicidal activity against Podosphaera xanthii (powdery mildew) inoculated in inter-specific squash hybrid Strong tosa (Cucurbita moschata x Cucurbita maxima) rootstock seedlings for 7 days prior to drug application assessed as incidence of disease symptoms on hypocotyls or upper or lower sides of cotyledons at 20.6% in 1.36 ml/L applied once measured 7 days post-drug dose under greenhouse …", "type": "functional"}, "Podosphaera xanthii [24]": {"test_system": "Podosphaera xanthii", "test": "as §1, with “20.6%” for “40%”, “1.36” for “0.37”", "type": "functional"}, "Podosphaera xanthii [25]": {"test_system": "Podosphaera xanthii", "test": "as §3, with “20.6%” for “40%”, “1.36” for “0.37”", "type": "functional"}, "Podosphaera xanthii [26]": {"test_system": "Podosphaera xanthii", "test": "as §2, with “upper” for “lower”, “20.6%” for “40%”, “1.36” for “0.37”, “10.2%)” for “5.1%)”", "type": "functional"}, "Podosphaera xanthii [27]": {"test_system": "Podosphaera xanthii", "test": "Fungicidal activity against Podosphaera xanthii (powdery mildew) inoculated in squash (Cucurbita pepo) rootstock seedlings continuously after first drug application assessed as incidence of disease symptoms on hypocotyls or upper or lower sides of cotyledons at 22.58% in 0.47ml/L applied thrice at 5-days intervals measured 5 days after third application under green house conditions (water Rvb = …", "type": "functional"}, "Podosphaera xanthii [28]": {"test_system": "Podosphaera xanthii", "test": "Fungicidal activity against Podosphaera xanthii (powdery mildew) inoculated in inter-specific squash hybrid Strong tosa (Cucurbita moschata x Cucurbita maxima) rootstock seedlings for 7 days prior to drug application assessed as incidence of disease symptoms on hypocotyls or upper or lower sides of cotyledons at 22.58% in 0.47ml/L applied once measured 7 days post-drug dose under greenhouse …", "type": "functional"}, "Podosphaera xanthii [29]": {"test_system": "Podosphaera xanthii", "test": "as §2, with “at 22.58%” for “on lower surface areas of cotyledonsat 40%”, “0.47ml/L” for “0.37 ml/L”, “17.5%)” for “5.1%)”", "type": "functional"}, "Podosphaera xanthii [30]": {"test_system": "Podosphaera xanthii", "test": "as §2, with “22.58%” for “40%”, “0.47ml/L” for “0.37 ml/L”", "type": "functional"}, "[31]": {"test_system": "Cucurbita maxima x Cucurbita moschata", "test": "Phytotoxicity against inter-specific squash hybrid Cucurbita moschata x Cucurbita maxima (Strong tosa) rootstock seedlings assessed as severe chlorosis or necrosis on cotyledons", "type": "organism-based", "details": "in vivo"}, "Podosphaera xanthii [32]": {"test_system": "Podosphaera xanthii", "test": "as §1, with “squash (Cucurbita pepo) rootstock seedlings” for “Lagenaria siceraria Emphasis”, “22.58%” for “40%”, “0.47ml/L” for “0.37 ml/L”, “3.9%)” for “53.5%)”", "type": "functional"}, "Lagenaria siceraria [33]": {"test_system": "Lagenaria siceraria", "test": "Phytotoxicity against Lagenaria siceraria 'Emphasis' rootstock seedlings assessed as severe chlorosis or necrosis on cotyledons", "type": "organism-based", "details": "in vivo"}, "Podosphaera xanthii [34]": {"test_system": "Podosphaera xanthii", "test": "as §2, with “upper” for “lower”, “22.58%” for “40%”, “0.47ml/L” for “0.37 ml/L”, “10.2%)” for “5.1%)”", "type": "functional"}}, "data": [{"smiles": "OO", "note": "[HYDROGEN PEROXIDE]", "values": [{"measurement": "Activity", "setting": "Lagenaria siceraria [1]", "result": "Non-toxic"}, {"measurement": "Activity", "setting": "[2]", "result": "Non-toxic"}, {"measurement": "Activity", "setting": "Lagenaria siceraria [3]", "result": "Non-toxic"}, {"measurement": "Activity", "setting": "[4]", "result": "Non-toxic"}]}, {"smiles": "CCCCC(C#N)(Cn1cncn1)c1ccc(Cl)cc1", "note": "(stereo not given) [MYCLOBUTANIL]", "values": [{"measurement": "Activity", "setting": "Podosphaera xanthii [5]", "result": 0, "unit": "%"}, {"measurement": "Activity", "setting": "Podosphaera xanthii [6]", "result": 4.1, "unit": "%"}, {"measurement": "inhibition (INH)", "setting": "Lagenaria siceraria [7]", "result": 33, "unit": "%"}, {"measurement": "Activity", "setting": "Podosphaera xanthii [8]", "result": 2.3, "unit": "%"}, {"measurement": "inhibition (INH)", "setting": "[9]", "result": 33, "unit": "%"}, {"measurement": "Activity", "setting": "Podosphaera xanthii [10]", "result": 0.02, "unit": "%"}, {"measurement": "Activity", "setting": "Podosphaera xanthii [11]", "result": 0.08, "unit": "%"}, {"measurement": "Activity", "setting": "Podosphaera xanthii [12]", "result": 0, "unit": "%"}, {"measurement": "Activity", "setting": "Podosphaera xanthii [13]", "result": 65.1, "unit": "%"}, {"measurement": "Activity", "setting": "Podosphaera xanthii [14]", "result": 3.1, "unit": "%"}, {"measurement": "Activity", "setting": "Podosphaera xanthii [15]", "result": 0.1, "unit": "%"}, {"measurement": "Activity", "setting": "Podosphaera xanthii [16]", "result": 0.9, "unit": "%"}]}, {"smiles": "CC(C)CC(C)c1sccc1NC(=O)c1cn(C)nc1C(F)(F)F", "note": "(stereo not given) [PENTHIOPYRAD]", "values": [{"measurement": "Activity", "setting": "Podosphaera xanthii [17]", "result": 0.9, "unit": "%"}, {"measurement": "Activity", "setting": "Podosphaera xanthii [18]", "result": 0, "unit": "%"}, {"measurement": "Activity", "setting": "Podosphaera xanthii [19]", "result": 0, "unit": "%"}, {"measurement": "Activity", "setting": "Podosphaera xanthii [20]", "result": 0.3, "unit": "%"}, {"measurement": "Activity", "setting": "Podosphaera xanthii [21]", "result": 0.03, "unit": "%"}, {"measurement": "Activity", "setting": "Podosphaera xanthii [22]", "result": 0.05, "unit": "%"}, {"measurement": "Activity", "setting": "[2]", "result": "Toxic"}, {"measurement": "Activity", "setting": "Podosphaera xanthii [23]", "result": 2.3, "unit": "%"}, {"measurement": "Activity", "setting": "Podosphaera xanthii [24]", "result": 1.3, "unit": "%"}, {"measurement": "Activity", "setting": "Podosphaera xanthii [25]", "result": 14.6, "unit": "%"}, {"measurement": "Activity", "setting": "Lagenaria siceraria [3]", "result": "Toxic"}, {"measurement": "Activity", "setting": "Podosphaera xanthii [26]", "result": 0, "unit": "%"}]}, {"smiles": "O=C([O-])O.[K+]", "note": "[POTASSIUM BICARBONATE]", "values": [{"measurement": "Activity", "setting": "Lagenaria siceraria [1]", "result": "Non-toxic"}, {"measurement": "Activity", "setting": "[2]", "result": "Non-toxic"}, {"measurement": "Activity", "setting": "Lagenaria siceraria [3]", "result": "Non-toxic"}, {"measurement": "Activity", "setting": "[4]", "result": "Non-toxic"}]}, {"smiles": "Fc1ccc(Oc2ccnc3cc(Cl)cc(Cl)c23)cc1", "note": "[QUINOXYFEN]", "values": [{"measurement": "Activity", "setting": "Podosphaera xanthii [27]", "result": 23.4, "unit": "%"}, {"measurement": "Activity", "setting": "Podosphaera xanthii [28]", "result": 14.6, "unit": "%"}, {"measurement": "Activity", "setting": "Podosphaera xanthii [29]", "result": 1.8, "unit": "%"}, {"measurement": "Activity", "setting": "Podosphaera xanthii [30]", "result": 0.3, "unit": "%"}, {"measurement": "Activity", "setting": "[31]", "result": "Toxic"}, {"measurement": "Activity", "setting": "Podosphaera xanthii [32]", "result": 0.43, "unit": "%"}, {"measurement": "Activity", "setting": "Lagenaria siceraria [33]", "result": "Toxic"}, {"measurement": "Activity", "setting": "Podosphaera xanthii [34]", "result": 1.2, "unit": "%"}]}]}
